According to patent US9096593B2, “Compounds and methods for kinase modulation, and indications therefor” (Plexxikon Inc., priority 2009, dated 2015):
Read-outs that look alike come from different tables or passages of the source.

Experiments:
BCR-FMS/BaF3 cells = BCR-FMS/BaF3 cells (Homo sapiens, UniProt P07333); experiment: BCR-FMS/BaF3 cell proliferation assay (ATPlite); type: cell-based
Method: Compounds are assessed in a variety of cell based assays. For example BCR-FMS/BaF3, BCR-KIT/BaF3, M-NFS-60, M-07e, and BAC1.2F5 cell proliferation assays are used to assess inhibitory activity of Fms or Kit and MV-4-11 cell proliferation assay is used to assess inhibitory activity in Flt-3. […] On day 1, cells are counted, then centrifuged in a conical tube for 5 minutes at 1000 rpm. The supernatant is removed and cells are re-suspended as follows: • BCR-FMS/BaF3 and BCR-KIT/BaF3: resuspend in growth media+1 mg/mL G418 (without WEHI/IL-3) to 2×10^5 cells/mL. • M-NFS-60: resuspend in growth media +62 ng/mL murine M-CSF to 5×10^5 cells/mL. • M-07e: resuspend in growth media +200 ng/mL human SCF to 5×10^5 cells/mL. • BAC1.2F5: resuspend in growth media +36 ng/mL murine M-CSF to 1.4×10^5 cells/mL. • MV-4-11: resuspend in growth media +10% FBS to 5×10^5 cells/mL. […] On day 2, compound at a maximum concentration of 5 mM is serially diluted 1:3 for a total of 8 point titration with DMSO as a control. A 1 μL aliquot of each dilution point is added to 249 μL growth media and 50 μL is added to a well containing cells, providing 10 μM compound for the maximum concentration point. The cells are incubated for 3 days at 37° C. in 5% CO2. […] ATPlite is added to each well as follows: • BCR-FMS/BaF3 and BCR-KIT/BaF3: 25 μL per well. • M-NFS-60: 25 μL per well. • M-07c: 40 μL per well. • BAC1.2F5: 50 μL per well. • MV-4-11: 40 μL per well. The cells are incubated at room temperature for 10 minutes, then luminescence is read on Safire reader. The measured luminescence correlates directly with cell number, such that the reading as a function of compound concentration is used to determine the IC50 value.

BCR-KIT/BaF3 cells = BCR-KIT/BaF3 cells (Homo sapiens, UniProt P10721); experiment: BCR-KIT/BaF3 cell proliferation assay (ATPlite); type: cell-based; conditions: read-out: BCR/BaF3 (IC50 μM) Kit
Method: Compounds are assessed in a variety of cell based assays. For example BCR-FMS/BaF3, BCR-KIT/BaF3, M-NFS-60, M-07e, and BAC1.2F5 cell proliferation assays are used to assess inhibitory activity of Fms or Kit and MV-4-11 cell proliferation assay is used to assess inhibitory activity in Flt-3. Reagent and assay conditions are as follows: • BCR-FMS/BaF3 and BCR-KIT/BaF3 cells: • Maintained in RPMI containing 10% FBS, 1% PenStrep, 1% NEAA, and 1% L-Glutamine, supplemented with 1 mg/mL G418 and 5% WEHI-CM (or recombinant murine IL-3). • Confluent cells are split 1:50 to 1:100 every 3-4 days. • M-NFS-60 cells (ATCC #CRL-1838): • Maintained in RPMI containing 10% FBS, 1% Hepes, 1% NaPyruvate, and 0.45% Glucose, supplemented with 62 ng/mL murine M-CSF. • Confluent cells are split 1:20 every 3-4 days. • M-07e cells (DSMZ #ACC 104): • Maintained in IMDM containing 10% FBS, supplemented with either 200 ng/mL human SCF or […] SCF (R&D Systems 255-SC). • Confluent cells are split 1:5 to 1:10 every 3-4 days. • BAC1.2F5 cells: • Maintained in Alpha-MEM containing 10% Newborn Calf Serum (Invitrogen #26010-074) supplemented with 36 ng/mL murine M-CSF. • Confluent cells are split 1:4 every 3-4 days. • MV-4-11 cells: • Maintained in Iscove's Modified Dulbecco's Medium containing 10% FBS. • Confluent cells are split 1:4 every 3-4 days. On day 1, cells are counted, then centrifuged in a conical tube for 5 minutes at 1000 rpm. The supernatant is removed and cells are re-suspended as follows: • BCR-FMS/BaF3 and BCR-KIT/BaF3: resuspend in growth media+1 mg/mL G418 (without WEHI/IL-3) to 2×10^5 cells/mL. • M-NFS-60: resuspend in growth media +62 ng/mL murine M-CSF to 5×10^5 cells/mL. • M-07e: resuspend in growth media +200 ng/mL human SCF to 5×10^5 cells/mL. • BAC1.2F5: resuspend in growth media +36 ng/mL murine M-CSF to 1.4×10^5 cells/mL. • MV-4-11: resuspend in growth media +10% FBS to 5×10^5 cells/mL. The cells are plated (50 μL) in each well of a 96-well dish (Corning 3610) and incubated at 37° C. in 5% CO2 overnight, cells plated to a final concentration of cells as follows: • BCR-FMS/BaF3 and BCR-KIT/BaF3: 10,000 cells per well. • M-NFS-60: 25,000 cells per well. • M-07e: 25,000 cells per well. • BAC1.2F5: 7,000 cells per well. • MV-4-11: 25,000 cells per well. On day 2, compound at a maximum concentration of 5 mM is serially diluted 1:3 for a total of 8 point titration with DMSO as a control. A 1 μL aliquot of each dilution point is added to 249 μL growth media and 50 μL is added to a well containing cells, providing 10 μM compound for the maximum concentration point. The cells are incubated for 3 days at 37° C. in 5% CO2. On day 5, ATPlite 1 step Luminescence Assay System (Perkin Elmer #6016739) is brought to room temperature along with the cell cultures. ATPlite is added to each well as follows: • BCR-FMS/BaF3 and BCR-KIT/BaF3: 25 μL per well. • M-NFS-60: 25 μL per well. • M-07c: 40 μL per well. • BAC1.2F5: 50 μL per well. • MV-4-11: 40 μL per well. The cells are incubated at room temperature for 10 minutes, then luminescence is read on Safire reader. The measured luminescence correlates directly with cell number, such that the reading as a function of compound concentration is used to determine the IC50 value.

[1] = BCR-FMS/BaF3 cells; read-out: BCR/BaF3 (IC50 μM) Fms
[2] = Kit IC50/Fms IC50, BCR-KIT/BaF3 vs BCR-FMS/BaF3 cells
[3] = read-out: BCR/BaF3 (IC50 μM) Fms; BCR-FMS/BaF3 cells
[4] = BCR-FMS/BaF3 cells, 3 days; read-out: Cell based (IC50 μM) BCR/BaF3 (Fms)
[5] = read-out: Cell based (IC50 μM) BCR/BaF3 (Fms); BCR-FMS/BaF3 cells, 3 days

Sequence of BCR-KIT/BaF3 cells (P10721 26-976 limits assumed, change not shown): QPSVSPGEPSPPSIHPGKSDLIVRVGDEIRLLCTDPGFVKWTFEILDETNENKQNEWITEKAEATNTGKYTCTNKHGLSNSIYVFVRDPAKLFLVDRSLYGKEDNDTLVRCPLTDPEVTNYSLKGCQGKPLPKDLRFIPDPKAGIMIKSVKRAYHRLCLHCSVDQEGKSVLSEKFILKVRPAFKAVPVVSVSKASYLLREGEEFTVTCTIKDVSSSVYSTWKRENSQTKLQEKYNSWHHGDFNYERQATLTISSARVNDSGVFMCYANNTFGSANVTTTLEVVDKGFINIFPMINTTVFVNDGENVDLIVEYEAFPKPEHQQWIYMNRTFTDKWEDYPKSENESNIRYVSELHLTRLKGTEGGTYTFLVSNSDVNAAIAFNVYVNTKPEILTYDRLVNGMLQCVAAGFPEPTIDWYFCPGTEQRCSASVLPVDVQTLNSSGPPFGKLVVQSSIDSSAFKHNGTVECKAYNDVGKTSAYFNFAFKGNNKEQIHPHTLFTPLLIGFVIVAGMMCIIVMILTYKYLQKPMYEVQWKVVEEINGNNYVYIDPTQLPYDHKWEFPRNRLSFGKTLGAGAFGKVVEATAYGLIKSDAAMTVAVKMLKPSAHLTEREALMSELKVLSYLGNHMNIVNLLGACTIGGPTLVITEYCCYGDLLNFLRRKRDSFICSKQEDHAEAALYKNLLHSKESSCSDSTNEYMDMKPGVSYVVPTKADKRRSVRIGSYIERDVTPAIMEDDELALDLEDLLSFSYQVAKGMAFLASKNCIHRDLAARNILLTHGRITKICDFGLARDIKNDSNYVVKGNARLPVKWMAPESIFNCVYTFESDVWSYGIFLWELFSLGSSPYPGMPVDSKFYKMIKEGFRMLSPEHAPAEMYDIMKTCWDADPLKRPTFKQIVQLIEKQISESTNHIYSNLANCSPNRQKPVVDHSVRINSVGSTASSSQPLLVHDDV
Sequence of BCR-FMS/BaF3 cells (P07333 20-972 limits assumed, change not shown): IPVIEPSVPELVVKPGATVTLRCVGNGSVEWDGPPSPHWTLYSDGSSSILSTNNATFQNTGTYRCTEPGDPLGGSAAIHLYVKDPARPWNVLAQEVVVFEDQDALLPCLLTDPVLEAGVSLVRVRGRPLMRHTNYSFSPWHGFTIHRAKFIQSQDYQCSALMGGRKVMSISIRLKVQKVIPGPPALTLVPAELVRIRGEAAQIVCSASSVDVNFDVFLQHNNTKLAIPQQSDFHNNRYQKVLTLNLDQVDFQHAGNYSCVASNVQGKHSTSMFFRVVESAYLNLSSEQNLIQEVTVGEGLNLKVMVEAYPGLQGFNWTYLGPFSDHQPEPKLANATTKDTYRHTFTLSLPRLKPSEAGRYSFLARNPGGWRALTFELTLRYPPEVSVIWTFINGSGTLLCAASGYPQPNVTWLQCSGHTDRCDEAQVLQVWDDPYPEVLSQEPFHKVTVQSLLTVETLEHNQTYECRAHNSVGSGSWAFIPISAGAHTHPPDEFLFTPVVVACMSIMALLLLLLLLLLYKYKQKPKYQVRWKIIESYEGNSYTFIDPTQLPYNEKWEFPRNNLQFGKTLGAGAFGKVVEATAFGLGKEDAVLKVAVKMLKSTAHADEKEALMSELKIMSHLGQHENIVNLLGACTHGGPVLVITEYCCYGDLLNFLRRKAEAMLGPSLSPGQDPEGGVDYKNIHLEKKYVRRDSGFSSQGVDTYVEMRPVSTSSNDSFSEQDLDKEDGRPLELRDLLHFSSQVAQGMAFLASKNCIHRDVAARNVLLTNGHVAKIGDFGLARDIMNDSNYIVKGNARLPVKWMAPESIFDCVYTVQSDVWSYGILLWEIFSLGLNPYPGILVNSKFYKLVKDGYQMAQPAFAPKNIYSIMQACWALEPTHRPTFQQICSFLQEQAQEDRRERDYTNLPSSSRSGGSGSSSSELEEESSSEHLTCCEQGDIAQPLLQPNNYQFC

| SMILES | IC50 (BCR-FMS/BaF3 cells; [1]) [µM] | BCR/BaF3 selectivity (Kit IC50/Fms IC50) (BCR-FMS/BaF3 cells; [2]) | IC50 (BCR-KIT/BaF3 cells) [µM] | IC50 (BCR-FMS/BaF3 cells; [3]) [µM] | IC50 (BCR-FMS/BaF3 cells; [4]) [µM] | IC50 (BCR-FMS/BaF3 cells; [5]) [µM] |
| --- | --- | --- | --- | --- | --- | --- |
| COc1ccc(CNc2ncc(Cc3c[nH]c4ncc(C)cc34)cc2C)cn1 [Compound P-1554, (6-Methoxy-pyridin-3-ylmethyl)-[3-methyl-5-(5-methyl-1H-pyrrolo[2,3-b]pyridin-3-ylmethyl)-pyridin-2-yl]-amine] | < 0.1 | <20 | > 0.1 | – | – | – |
| COc1ccc(CNc2ncc(Cc3c[nH]c4ncc(C)cc34)cc2F)cn1 [Compound P-1562, [3-Fluoro-5-(5-methyl-1H-pyrrolo[2,3-b]pyridin-3-ylmethyl)-pyridin-2-yl]-(6-methoxy-pyridin-3-ylmethyl)-amine] | – | <20 | > 0.1 | < 0.1 | – | – |
| COc1ccc(CNc2ccc(Cc3c[nH]c4ncc(F)cc34)c(F)n2)cn1 [Compound P-1622, [6-Fluoro-5-(5-fluoro-1H-pyrrolo[2,3-b]pyridin-3-ylmethyl)-pyridin-2-yl]-(6-methoxy-pyridin-3-ylmethyl)-amine] | – | >20 | > 0.1 | < 0.1 | – | – |
| COc1ncc(F)cc1CNc1ccc(Cc2c[nH]c3ncc(NC(C)=O)cc23)c(F)n1 [Compound P-1669, N-(3-{2-fluoro-6-[(5-fluoro-2-methoxy-pyridin-3-ylmethyl)-amino]-pyridin-3-ylmethyl}-1H-pyrrolo[2,3-b]pyridin-5-yl)-acetamide] | – | >20 | > 0.1 | < 0.1 | – | – |
| CS(=O)(=O)Nc1cnc2[nH]cc(Cc3ccc(NCc4ccc(Cl)nc4)nc3F)c2c1 [Compound P-1679, N-(3-{6-[(6-Chloro-pyridin-3-ylmethyl)-amino]-2-fluoro-pyridin-3-ylmethyl}-1H-pyrrolo[2,3-b]pyridin-5-yl)-methanesulfonamide] | – | >20 | > 0.1 | < 0.1 | – | – |
| Fc1cncc(CNc2ccc(Cc3c[nH]c4ncc(Cl)cc34)c(F)n2)c1 [Compound P-2001, [5-(5-Chloro-1H-pyrrolo[2,3-b]pyridin-3-ylmethyl)-6-fluoro-pyridin-2-yl]-(5-fluoro-pyridin-3-ylmethyl)-amine] | – | >20 | > 0.1 | < 0.1 | – | – |
| Clc1cnc2[nH]cc(Cc3ccc(NCc4ccc(Cl)nc4)nc3)c2c1 [Compound P-2003] | < 0.1 | <20 | < 0.1 | – | < 0.1 | – |
| Fc1ccc(CNc2ccc(Cc3c[nH]c4ncc(Cl)cc34)cn2)cn1 [Compound P-2004, [5-(5-chloro-1H-pyrrolo[2,3-b]pyridin-3-ylmethyl)-pyridin-2-yl]-(6-fluoro-pyridin-3-ylmethyl)-amine] | – | <20 | < 0.1 | < 0.1 | – | < 0.1 |
| Fc1ccc(CNc2ncc(Cc3c[nH]c4ncc(Cl)cc34)cn2)cc1F [Compound P-2008, [5-(5-Chloro-1H-pyrrolo[2,3-b]pyridin-3-ylmethyl)-pyrimidin-2-yl]-(3,4-difluoro-benzyl)-amine] | < 0.1 | <20 | > 0.1 | – | – | – |
| Cc1cccc(CNc2ncc(Cc3c[nH]c4ncc(Cl)cc34)cn2)c1 [Compound P-2013, [5-(5-Chloro-1H-pyrrolo[2,3-b]pyridin-3-ylmethyl)-pyrimidin-2-yl]-(3-methyl-benzyl)-amine] | < 0.1 | <20 | > 0.1 | – | – | – |
| Cc1cnc2[nH]cc(Cc3ccc(NCc4ccc(C(F)(F)F)nc4)nc3)c2c1 [Compound P-2019, [5-(5-Methyl-1H-pyrrolo[2,3-b]pyridin-3-ylmethyl)-pyridin-2-yl]-(6-trifluoromethyl-pyridin-3-ylmethyl)-amine] | – | <20 | < 0.1 | < 0.1 | – | < 0.1 |
| COc1cnc2[nH]cc(Cc3ccc(NCc4cncc(F)c4)nc3F)c2c1 [Compound P-2028, [6-Fluoro-5-(5-methoxy-1H-pyrrolo[2,3-b]pyridin-3-ylmethyl)-pyridin-2-yl]-(5-fluoro-pyridin-3-ylmethyl)-amine] | – | >20 | > 0.1 | < 0.1 | – | – |
| COc1ccc(CNc2ccc(Cc3c[nH]c4ncc(C)cc34)c(F)n2)cn1 [Compound P-2029, [6-Fluoro-5-(5-methyl-1H-pyrrolo[2,3-b]pyridin-3-ylmethyl)-pyridin-2-yl]-(6-methoxy-pyridin-3-ylmethyl)-amine] | – | >20 | > 0.1 | < 0.1 | – | < 0.1 |
| COc1cnc2[nH]cc(Cc3ccc(NCc4ccc(OC)nc4)nc3F)c2c1 [Compound P-2030, [6-Fluoro-5-(5-methoxy-1H-pyrrolo[2,3-b]pyridin-3-ylmethyl)-pyridin-2-yl]-(6-methoxy-pyridin-3-ylmethyl)-amine] | – | >20 | > 0.1 | < 0.1 | – | < 0.1 |
| COc1cnc2[nH]cc(Cc3ccc(NCc4ccccc4Cl)nc3F)c2c1 [Compound P-2034, (2-chloro-benzyl)-[6-fluoro-5-(5-methoxy-1H-pyrrolo[2,3-b]pyridin-3-ylmethyl)-pyridin-2-yl]-amine] | – | – | – | – | < 0.1 | – |
| Fc1nc(NCc2ccc(Cl)cn2)ccc1Cc1c[nH]c2ncccc12 [Compound P-2044, (5-Chloro-pyridin-2-ylmethyl)-[6-fluoro-5-(1H-pyrrolo[2,3-b]pyridin-3-ylmethyl)-pyridin-2-yl]-amine] | – | – | – | – | – | < 0.1 |
